EC50 and Ki data for 61 compounds are collected here from PubChem BioAssay AID1897 (NMMLSC, 2009).

Calls of active or inactive are those of the source. The rule behind the calls is not given here.

For orientation: EC50 means the concentration at which the effect is half-maximal. One may read the Ki as a measure of affinity in units of concentration, obtained from inhibition or displacement.

The first assay deals with Mitogen-activated protein kinase kinase kinase 2 (Homo sapiens) + Dual specificity mitogen-activated protein kinase kinase 5 (Homo sapiens) (UniProt Q9Y2U5+Q13163). In words: MEKK2 PB1-MEK5 interaction blockers – biochemical, bead multiplex flow cytometry, wildtype, dose response (AID 1897). The conditions noted are these: MEK5-MEKK2 PB1 binding. (In general: Flow cytometry measures light scatter and fluorescence of single cells or particles in a stream.)
Mitogen-activated protein kinase kinase kinase 2 (Homo sapiens) + Dual specificity mitogen-activated protein kinase kinase 5 (Homo sapiens), sequence (Q13163 whole entry, looked up): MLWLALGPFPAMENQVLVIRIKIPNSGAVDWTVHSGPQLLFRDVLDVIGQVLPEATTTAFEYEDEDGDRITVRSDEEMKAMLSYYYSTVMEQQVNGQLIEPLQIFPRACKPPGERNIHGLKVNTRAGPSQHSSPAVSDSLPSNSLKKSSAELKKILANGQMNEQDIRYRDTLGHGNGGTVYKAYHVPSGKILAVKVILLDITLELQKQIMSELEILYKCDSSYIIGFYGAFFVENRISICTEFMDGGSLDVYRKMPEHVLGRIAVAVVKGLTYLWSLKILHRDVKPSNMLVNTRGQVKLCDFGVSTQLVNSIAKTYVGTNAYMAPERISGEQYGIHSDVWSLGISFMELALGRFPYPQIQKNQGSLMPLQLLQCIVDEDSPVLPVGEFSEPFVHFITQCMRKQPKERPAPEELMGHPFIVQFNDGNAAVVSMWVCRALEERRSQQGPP
Mitogen-activated protein kinase kinase kinase 2 (Homo sapiens) + Dual specificity mitogen-activated protein kinase kinase 5 (Homo sapiens), sequence (Q9Y2U5 whole entry, looked up): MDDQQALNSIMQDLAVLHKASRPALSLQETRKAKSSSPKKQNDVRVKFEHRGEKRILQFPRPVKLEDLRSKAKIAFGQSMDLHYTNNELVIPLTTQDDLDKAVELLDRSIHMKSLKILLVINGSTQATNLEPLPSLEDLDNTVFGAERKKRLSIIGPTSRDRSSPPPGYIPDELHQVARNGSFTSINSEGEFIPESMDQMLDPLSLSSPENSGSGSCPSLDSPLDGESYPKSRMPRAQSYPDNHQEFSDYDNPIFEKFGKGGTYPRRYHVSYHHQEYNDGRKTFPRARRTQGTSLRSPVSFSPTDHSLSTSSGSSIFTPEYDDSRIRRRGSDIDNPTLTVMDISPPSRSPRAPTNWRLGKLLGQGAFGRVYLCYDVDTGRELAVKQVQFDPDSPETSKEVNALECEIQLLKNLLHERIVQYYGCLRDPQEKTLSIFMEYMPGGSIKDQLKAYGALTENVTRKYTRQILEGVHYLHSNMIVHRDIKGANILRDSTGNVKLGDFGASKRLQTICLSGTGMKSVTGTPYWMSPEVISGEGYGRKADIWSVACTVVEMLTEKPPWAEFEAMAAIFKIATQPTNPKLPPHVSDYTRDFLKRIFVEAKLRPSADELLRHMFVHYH
For `CCN(CC)CCOC(=O)c1ccc(N/C=C(/C#N)c2nc(-c3ccc(OC)c(OC)c3)cs2)cc1`, the EC50 is > 30 µM (inactive).

As for `FC(F)(F)c1cccc(NC(=S)N(CCCN2CCCC2)Cc2cccn2Cc2ccc(Cl)cc2)c1`, the EC50 is 5.19 µM.

On to `CCCCCCCCCCOC(=O)Cn1c(COc2ccc(OC)cc2)[n+](C)c2ccccc21`, for which the EC50 was > 30 µM (inactive).

Take `S=C(Nc1cccc(Cl)c1)N(CCCN1CCCC1)Cc1cccn1Cc1ccc(Cl)cc1`: the EC50 was 5.75 µM.

`COC(=O)c1c(C)oc(C)c1S(=O)(=O)N(Cc1ccccc1)C(C)C`: the EC50 is > 30 µM (inactive).

For the compound `C#CCOCCOCCOCCNc1nc(N2CCN(C(=O)[C@H](Cc3cc4ccccc4[nH]3)n3cc([C@@H](N)CC(C)C)nn3)CC2)nc(N2CCN(C(=O)[C@H](Cc3cc4ccccc4[nH]3)n3cc([C@@H](N)CC(C)C)nn3)CC2)n1`, the EC50 was > 30 µM (inactive).

As to `O=C1c2ccccc2-c2onc3ccc(NCc4ccco4)c1c23`, the EC50 was > 30 µM (inactive).

As for `CCN1/C(=C/C=C/C=C/C=C/c2sc3ccccc3[n+]2CC)Sc2ccccc21`, the EC50 was > 30 µM (inactive).

For `NC(=O)CSc1nnc(Cc2ccc3c(c2)OCO3)o1`, the EC50 is > 30 µM (inactive).

On to `CCOc1ccc(C2=C/C(=C/c3cccnc3)C(=O)O2)cc1`, for which the EC50 was > 30 µM (inactive).

`CCOC(=O)C(C(=O)OCC)c1cc(Br)c2noc3c2c1C(=O)c1ccccc1-3`: the EC50 was 2.82 µM.

In the case of `CCOc1cccc2sc(N(CCCN(C)C)C(=O)c3ccc(S(=O)(=O)N4CCc5ccccc5C4)cc3)nc12`, the EC50 is 13.2 µM.

In the case of `COc1ccc(CSc2n[nH]c(C)n2)cc1[N+](=O)[O-]`, the EC50 was > 30 µM (inactive).

As to `CN1CCN(CC(=O)N2CCn3c4c(c5cc(C6CCCCC6)ccc53)CCCC42)CC1` (stereo unspecified), the EC50 was > 30 µM (inactive).

`O=C1c2ccccc2-c2onc3ccc(NCCCn4ccnc4)c1c23`: the EC50 is > 30 µM (inactive).

For `CN(C)c1ccc(NC(=O)CN2CCC(O)(c3ccccc3)CC2)cc1`, the EC50 is > 30 µM (inactive).

Consider `C#CCOCCOCCOCCNc1nc(N2CCN(C(=O)[C@H](Cc3ccc(O)cc3)n3cc([C@@H](N)CC(C)C)nn3)CC2)nc(N2CCN(C(=O)[C@H](Cc3cc4ccccc4[nH]3)n3cc([C@@H](N)CC(C)C)nn3)CC2)n1`, for which the half-maximal effective concentration (EC50) is 5.14 µM.

On to `NC(N)=N/N=C/c1ccc(OCc2ccc(Cl)cc2Cl)cc1`, for which the EC50 was 1.91 µM.

Consider `COc1ccc(/C=N/Nc2cc(C)nc3ccc(Br)cc23)cc1`, for which the EC50 is 1.94 µM.

On to `O=[N+]([O-])c1ccc(/C=C/C2=NN(c3ccccc3)C(c3ccco3)C2)o1` (stereo unspecified), for which the EC50 was > 30 µM (inactive).

Consider `COc1ccc(-c2cc(C#N)nc(N3CCNCC3)n2)cc1`, for which the EC50 is > 30 µM (inactive).

Regarding `CCOC(=O)c1c(CSC(=N)N)n(-c2ccc(C)cc2)c2cc(Br)c(OC(C)=O)cc12`, the EC50 is 5.2 µM.

With `C#CCOCCOCCOCCNc1nc(N2CCN(C(=O)[C@H](Cc3ccc(O)cc3)n3cc([C@@H](N)CC(C)C)nn3)CC2)nc(N2CCN(C(=O)[C@H](Cc3ccc(O)cc3)n3cc([C@@H](N)CC(C)C)nn3)CC2)n1`, the EC50 is 8.71 µM.

On to `CN1C(=CC=C2C=C(I)C(=O)C(I)=C2)C(C)(C)c2ccccc21`, for which the EC50 was 9.16 µM.

Regarding `CC[C@@H](C)[C@H](CNC)NC[C@@H](Cc1cccc2ccccc12)NCCc1cccc(C(F)(F)F)c1`, the EC50 was 2.03 µM.

Consider `COCc1c(C#N)c(NCCc2ccccc2)nc(C)c1[N+](=O)[O-]`, for which the EC50 is > 30 µM (inactive).

As to `CN(C)CCCN(C(=O)c1ccc2c(c1)CCCC2)c1nc2ccc(Cl)cc2s1`, the EC50 is > 30 µM (inactive).

Regarding `CCC(/C=C1\Sc2ccc(OC)cc2N1CCO)=C\c1sc2ccc(OC)cc2[n+]1CCO`, the EC50 was 0.87 µM.

Turning to `C#CCOCCOCCOCCNc1nc(N2CCN(C(=O)[C@H]([C@@H](C)CC)n3cc([C@@H](N)CC(C)C)nn3)CC2)nc(N2CCN(C(=O)[C@H](Cc3cc4ccccc4[nH]3)n3cc([C@@H](N)Cc4ccc(O)cc4)nn3)CC2)n1`, the EC50 was > 30 µM (inactive).

Regarding `CN1C(=O)/C(=C\c2ccc(-c3ccccc3)o2)SC1=S`, the EC50 is 3.51 µM.

In the case of `CCN1/C(=C/C(C)=C/c2sc3ccccc3[n+]2CC)Sc2ccccc21`, the EC50 is 0.53 µM.

Take `O=C(Nc1ccc(Cl)cn1)c1ccc2c(Cl)c3c(nc2c1)CCC3`: the EC50 is > 30 µM (inactive).

Turning to `CCN1/C(=C/c2ccc3cc(C)ccc3[n+]2C)Sc2ccc3sccc3c21`, the EC50 was > 30 µM (inactive).

As to `COc1ccc(-c2csc(N(CCCN(C)C)C(=O)c3ccccc3Cl)n2)cc1`, the EC50 was > 30 µM (inactive).

For `CCN1CCN(Cc2ccc(NC(=O)c3ccc(C)c(NC(=O)C(=O)c4c[nH]c5ccccc45)c3)cc2C(F)(F)F)CC1`, the EC50 was > 30 µM (inactive).

On to `Cc1ccccc1OCC(O)CNC1CCC(NCC(O)COc2ccccc2C)CC1` (stereo unspecified), for which the EC50 is > 30 µM (inactive).

As to `CCc1ccc(Nc2n[n+](-c3ccccc3)c(-c3ccc(OCc4ccccc4)cc3)s2)cc1`, the EC50 is 5.48 µM.

Turning to `CCCCCCOc1ccc(/C(C)=N/NC2=NCCN2)cc1[N+](=O)[O-]`, the EC50 is 9.29 µM.

`Cc1cc2ccccc2n1CCNC(=O)c1cccs1`: the EC50 is 14.6 µM.

For `COc1cc2nc(N3CCN(c4cc(C)ccc4C)CC3)nc(N)c2cc1OC`, the EC50 is 3.89 µM.

As for `Cc1ccc(-n2cc(CNCCCn3ccnc3C)c(-c3ccc(F)cc3)n2)cc1`, the EC50 was > 30 µM (inactive).

On to `Cc1nn2c(N)csc2nc1=O`, for which the EC50 is 4.09 µM.

For `CCN1CCN(CCNC(=O)c2ccc(/C=C3/Sc4ccccc4N(Cc4cccc(C)c4)C3=O)cc2)CC1`, the EC50 is 6.61 µM.

For the compound `NC(=NCCCCCCN=C(N)/N=C(\N)Nc1ccc(Cl)cc1)/N=C(\N)Nc1ccc(Cl)cc1`, the EC50 was 0.67 µM.

Consider `CCCCCCCCCCCCCCCC[n+]1ccc(/C=N/O)cc1`, for which the EC50 was 2.94 µM.

For the compound `Nc1ccc(Nc2ccccc2N)cc1`, the EC50 is 23.6 µM.

Turning to `CCCCCCCCCCOC(=O)Cn1c(COc2ccccc2OC)[n+](C)c2ccccc21`, the EC50 was 3.05 µM.

With `CCCCCCCCCCOC(=O)Cn1c(COc2ccccc2)[n+](C)c2ccccc21`, the EC50 is 2.6 µM.

`COc1ccc(C(CCNCc2ccc(OC(C)C)cc2)c2ccccc2OC)cc1` (stereo unspecified): the EC50 is > 30 µM (inactive).

As to `Brc1ccc(N=C/C=C/C=C/Nc2ccc(Br)cc2)cc1`, the EC50 was > 30 µM (inactive).

In the case of `CCCCN(CC)CCNC(=O)c1cc2c(-c3ccc(Cl)cc3)nn(C)c2s1`, the EC50 was 14.4 µM.

Turning to `CCCCCc1cc(=O)oc2c(C(CCN3CCCCC3)c3ccc(OC)cc3)c(OC)cc(OC)c12` (stereo unspecified), the EC50 is > 30 µM (inactive).

As for `CCCCCCCCCCOC(=O)Cn1c(COc2ccccc2C)[n+](C)c2ccccc21`, the EC50 was > 30 µM (inactive).

With `CCN1/C(=C/c2ccc3cc(C)cc(C)c3[n+]2CC)Sc2cc(C)ccc21`, the EC50 is 1.88 µM.

Turning to `Cc1cc(N=Nc2ccc(C)c(N=Nc3cc(C)c(N)cc3N)c2)c(N)cc1N`, the EC50 was > 30 µM (inactive).

With `CC(=O)Nc1cccc2c1C(=O)N(c1cccc(C)c1)C2=O`, the EC50 is > 30 µM (inactive).

As for `CCN(CC)CCOC(=O)c1ccc(N/C=C(/C#N)c2nc(-c3ccc(OC)cc3)cs2)cc1`, the EC50 is > 30 µM (inactive).

`Cc1ccc(-c2csc(NC(=O)C[n+]3cc(-c4ccc(C)cc4)n4c3CCC4)n2)cc1`: the EC50 was > 30 µM (inactive).

`CCc1ccc(Nc2n[n+](-c3ccccc3)c(-c3ccc(OC)c(Br)c3)s2)cc1`: the EC50 was 2.85 µM.

Turning to `CCN1/C(=C/c2ccc3cc(C)ccc3[n+]2CC)Sc2cc(C)c(C)cc21`, the EC50 is 2.63 µM.

The same assay, now with this note: MEK5-MEKK2 PB1 binding, measured here: Ki from binding competition.
Take `CCOC(=O)C(C(=O)OCC)c1cc(Br)c2noc3c2c1C(=O)c1ccccc1-3`: the Ki was determined as 2.53 µM.

Turning to `CN1C(=CC=C2C=C(I)C(=O)C(I)=C2)C(C)(C)c2ccccc21`, the Ki is 8.2 µM.

Regarding `Cc1c2cc(O)c(=O)cc-2oc2cc(O)c(O)cc12`, the Ki came out at 3.59 µM.

`CCC(/C=C1\Sc2ccc(OC)cc2N1CCO)=C\c1sc2ccc(OC)cc2[n+]1CCO`: the Ki is 0.78 µM.

On to `CN1C(=O)/C(=C\c2ccc(-c3ccccc3)o2)SC1=S`, for which the Ki amounted to 3.14 µM.

Take `CCN1/C(=C/C(C)=C/c2sc3ccccc3[n+]2CC)Sc2ccccc21`: the Ki amounted to 0.47 µM.

Turning to `Cc1cc2ccccc2n1CCNC(=O)c1cccs1`, the Ki came to 13.1 µM.

As for `Cc1nn2c(N)csc2nc1=O`, the Ki came out at 3.66 µM.

For `Nc1ccc(Nc2ccccc2N)cc1`, the Ki came to 21.1 µM.

`CCN1/C(=C/c2ccc3cc(C)cc(C)c3[n+]2CC)Sc2cc(C)ccc21`: the Ki was 1.68 µM.

With `CCN1/C(=C/c2ccc3cc(C)ccc3[n+]2CC)Sc2cc(C)c(C)cc21`, the Ki is 2.35 µM.
